Measurements published in the supplement of paper PMC10307832.

Tests used:
Test in all cases: relative viability (nuclei count vs DMSO), 5 days (fraction); higher = more cells survive
H3255 = system: H3255
How it was run: (§1)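 Relative viability equals treated-well nuclei counts divided by vehicle-well nuclei counts. Counts came from 4× images of lung cancer cell lines grown in 1536-well plates for 5 days after pin-tool dosing on the day after seeding. Dosing used one drug alone or a fixed anchor-drug dose plus five library-drug doses (not always all listed) in √10 steps, and values are medians of duplicate plates.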

NCI-H1944 = system: NCI-H1944
How it was run: as §1

NCI-H1915 = system: NCI-H1915
How it was run: as §1

NCI-H661 = system: NCI-H661
How it was run: as §1

ABC-1 = system: ABC-1
How it was run: as §1

NCI-H441 = system: NCI-H441
How it was run: as §1

NCI-H1650 = system: NCI-H1650
How it was run: as §1

NCI-H2087 = system: NCI-H2087
How it was run: as §1

NCI-H2023 = system: NCI-H2023
How it was run: as §1

BEN = system: BEN
How it was run: as §1

CAL-12T = system: CAL-12T
How it was run: as §1

201T = system: 201T
How it was run: as §1

NCI-H460 = system: NCI-H460
How it was run: as §1

NCI-H596 = system: NCI-H596
How it was run: as §1

NCI-H1651 = system: NCI-H1651
How it was run: as §1

NCI-H520 = system: NCI-H520
How it was run: as §1

LC-2-ad = system: LC-2-ad
How it was run: as §1

NCI-H650 = system: NCI-H650
How it was run: as §1

NCI-H727 = system: NCI-H727
How it was run: as §1

LCLC-97TM1 = system: LCLC-97TM1
How it was run: as §1

PC-3 [JPC-3] = system: PC-3 [JPC-3]
How it was run: as §1

A-427 = system: A-427
How it was run: as §1

COc1cc2nccc(Oc3ccc(NC(=O)Nc4cc(C)on4)c(Cl)c3)c2cc1OC [Tivozanib] + Cc1nc(Nc2ncc(C(=O)Nc3c(C)cccc3Cl)s2)cc(N2CCN(CCO)CC2)n1 [Dasatinib] (partner 0.075 µM)
relative viability (H3255; first compound 0.005 µM): 0.316 | relative viability (H3255; first compound 0.01581 µM): 0.432 | relative viability (H3255; first compound 0.05 µM): 0.347 | relative viability (H3255; first compound 0.1581 µM): 0.345 | relative viability (H3255; first compound 0.5 µM): 0.326 | relative viability (NCI-H1944; first compound 0.005 µM): 0.236 | relative viability (NCI-H1944; first compound 0.01581 µM): 0.246 | relative viability (NCI-H1944; first compound 0.05 µM): 0.208 | relative viability (NCI-H1944; first compound 0.1581 µM): 0.192 | relative viability (NCI-H1944; first compound 0.5 µM): 0.208 | relative viability (NCI-H1915; first compound 0.005 µM): 0.279 | relative viability (NCI-H1915; first compound 0.01581 µM): 0.3 | relative viability (NCI-H1915; first compound 0.05 µM): 0.3 | relative viability (NCI-H1915; first compound 0.1581 µM): 0.289 | relative viability (NCI-H1915; first compound 0.5 µM): 0.272 | relative viability (NCI-H661; first compound 0.005 µM): 0.851 | relative viability (NCI-H661; first compound 0.01581 µM): 0.909 | relative viability (NCI-H661; first compound 0.05 µM): 0.95 | relative viability (NCI-H661; first compound 0.1581 µM): 0.834 | relative viability (NCI-H661; first compound 0.5 µM): 0.796 | relative viability (ABC-1; first compound 0.005 µM): 0.649 | relative viability (ABC-1; first compound 0.01581 µM): 0.583 | relative viability (ABC-1; first compound 0.05 µM): 0.729 | relative viability (ABC-1; first compound 0.1581 µM): 0.489 | relative viability (ABC-1; first compound 0.5 µM): 0.323 | relative viability (NCI-H441; first compound 0.005 µM): 0.642 | relative viability (NCI-H441; first compound 0.01581 µM): 0.584 | relative viability (NCI-H441; first compound 0.05 µM): 0.498 | relative viability (NCI-H441; first compound 0.1581 µM): 0.625 | relative viability (NCI-H441; first compound 0.5 µM): 0.394 | relative viability (NCI-H1650; first compound 0.005 µM): 0.309 | relative viability (NCI-H1650; first compound 0.01581 µM): 0.361 | relative viability (NCI-H1650; first compound 0.05 µM): 0.346 | relative viability (NCI-H1650; first compound 0.1581 µM): 0.27 | relative viability (NCI-H1650; first compound 0.5 µM): 0.267 | relative viability (NCI-H2087; first compound 0.005 µM): 0.6 | relative viability (NCI-H2087; first compound 0.01581 µM): 0.742 | relative viability (NCI-H2087; first compound 0.05 µM): 0.794 | relative viability (NCI-H2087; first compound 0.1581 µM): 0.911 | relative viability (NCI-H2087; first compound 0.5 µM): 0.772 | relative viability (NCI-H2023; first compound 0.005 µM): 0.515 | relative viability (NCI-H2023; first compound 0.01581 µM): 0.577 | relative viability (NCI-H2023; first compound 0.05 µM): 0.55 | relative viability (NCI-H2023; first compound 0.1581 µM): 0.561 | relative viability (NCI-H2023; first compound 0.5 µM): 0.523 | relative viability (BEN; first compound 0.005 µM): 0.254 | relative viability (BEN; first compound 0.01581 µM): 0.342 | relative viability (BEN; first compound 0.05 µM): 0.369 | relative viability (BEN; first compound 0.1581 µM): 0.225 | relative viability (BEN; first compound 0.5 µM): 0.25 | relative viability (CAL-12T; first compound 0.005 µM): 0.402 | relative viability (CAL-12T; first compound 0.01581 µM): 0.527 | relative viability (CAL-12T; first compound 0.05 µM): 0.481 | relative viability (CAL-12T; first compound 0.1581 µM): 0.343 | relative viability (CAL-12T; first compound 0.5 µM): 0.285 | relative viability (201T; first compound 0.005 µM): 0.536 | relative viability (201T; first compound 0.01581 µM): 0.566 | relative viability (201T; first compound 0.05 µM): 0.6 | relative viability (201T; first compound 0.1581 µM): 0.57 | relative viability (201T; first compound 0.5 µM): 0.553 | relative viability (NCI-H460; first compound 0.005 µM): 0.401 | relative viability (NCI-H460; first compound 0.01581 µM): 0.486 | relative viability (NCI-H460; first compound 0.05 µM): 0.549 | relative viability (NCI-H460; first compound 0.1581 µM): 0.551 | relative viability (NCI-H460; first compound 0.5 µM): 0.529 | relative viability (NCI-H596; first compound 0.005 µM): 0.55 | relative viability (NCI-H596; first compound 0.01581 µM): 0.591 | relative viability (NCI-H596; first compound 0.05 µM): 0.575 | relative viability (NCI-H596; first compound 0.5 µM): 0.522 | relative viability (NCI-H1651; first compound 0.005 µM): 0.291 | relative viability (NCI-H1651; first compound 0.01581 µM): 0.437 | relative viability (NCI-H1651; first compound 0.05 µM): 0.457 | relative viability (NCI-H1651; first compound 0.1581 µM): 0.36 | relative viability (NCI-H1651; first compound 0.5 µM): 0.377 | relative viability (NCI-H520; first compound 0.005 µM): 0.183 | relative viability (NCI-H520; first compound 0.01581 µM): 0.201 | relative viability (NCI-H520; first compound 0.05 µM): 0.232 | relative viability (NCI-H520; first compound 0.1581 µM): 0.175 | relative viability (NCI-H520; first compound 0.5 µM): 0.182 | relative viability (LC-2-ad; first compound 0.005 µM): 0.458 | relative viability (LC-2-ad; first compound 0.01581 µM): 0.504 | relative viability (LC-2-ad; first compound 0.05 µM): 0.615 | relative viability (LC-2-ad; first compound 0.1581 µM): 0.268 | relative viability (LC-2-ad; first compound 0.5 µM): 0.208 | relative viability (NCI-H650; first compound 0.005 µM): 0.344 | relative viability (NCI-H650; first compound 0.01581 µM): 0.509 | relative viability (NCI-H650; first compound 0.05 µM): 0.447 | relative viability (NCI-H650; first compound 0.1581 µM): 0.368 | relative viability (NCI-H650; first compound 0.5 µM): 0.387 | relative viability (NCI-H727; first compound 0.005 µM): 0.339 | relative viability (NCI-H727; first compound 0.01581 µM): 0.33 | relative viability (NCI-H727; first compound 0.05 µM): 0.44 | relative viability (NCI-H727; first compound 0.1581 µM): 0.328 | relative viability (NCI-H727; first compound 0.5 µM): 0.451 | relative viability (LCLC-97TM1; first compound 0.005 µM): 0.941 | relative viability (LCLC-97TM1; first compound 0.01581 µM): 0.855 | relative viability (LCLC-97TM1; first compound 0.05 µM): 0.923 | relative viability (LCLC-97TM1; first compound 0.1581 µM): 0.921 | relative viability (LCLC-97TM1; first compound 0.5 µM): 0.836 | relative viability (PC-3 [JPC-3]; first compound 0.005 µM): 0.934 | relative viability (PC-3 [JPC-3]; first compound 0.01581 µM): 1 | relative viability (PC-3 [JPC-3]; first compound 0.05 µM): 0.983 | relative viability (PC-3 [JPC-3]; first compound 0.1581 µM): 0.812 | relative viability (PC-3 [JPC-3]; first compound 0.5 µM): 0.951 | relative viability (A-427; first compound 0.005 µM): 0.645 | relative viability (A-427; first compound 0.01581 µM): 0.669 | relative viability (A-427; first compound 0.05 µM): 0.699 | relative viability (A-427; first compound 0.1581 µM): 0.538 | relative viability (A-427; first compound 0.5 µM): 0.686
